Laboratory results: a melting point compilation (Tetko et al.; mined from patent text by program, amines drawn as free bases though some values may be those of a salt)

melting point | Compound
73 °C | Cc1ccc(CC(CNC(=S)NC(C)c2ccc(NS(C)(=O)=O)c(F)c2)COC(=O)C(C)(C)C)cc1C (configuration not stated)
157 to 159 °C | CCC(=O)O[C@@H]1OCC[C@@H]1NC(=O)[C@@H](NS(=O)(=O)c1cccc2ccccc12)[C@@H](C)CC
260 °C | CCOC(=O)c1cn(C2CC2)c2nc3c(F)c(F)c(F)cc3cc2c1=O
68 to 69 °C | CC(C)(COCc1cccc(Oc2ccccc2)c1)c1ccc(O)c(Cl)c1
164 to 165 °C | CCC1(Cl)Cc2cc(OC(C)(C)C(=O)O)c(Cl)c(Cl)c2C1=O (configuration not stated)
194 to 196 °C | CCN1c2nc(Cl)ccc2NC(=O)c2cc(CCc3ccncc3)cnc21
170 to 172 °C | CCOc1cc(C#N)ccc1C(=O)O
153 to 154 °C | O=Cc1cn(Cc2ccc(OCc3coc(-c4ccccc4)n3)cc2)nc1-c1cccs1
130 °C | COc1ccc(-c2cc(CN(C)C)c(=O)n(Cc3ccc(F)c(F)c3)n2)cc1F
89 to 95 °C | CCCC(C)SC(=O)c1ccc(NC(=O)NC)cc1Cl (configuration not stated)
236 to 238 °C | CCc1c(C(=O)OC(C)C)ncc2[nH]c3ccc4nc(C)cnc4c3c12
182 to 183 °C | COc1ccc2c(c1)CCc1nn(-c3nc4ccccc4s3)c(O)c1-2
155 to 157 °C | O=C1C2CCCC2=Nc2ccccc2N1Cc1ccc(Cl)cc1 (configuration not stated)
> 280 °C | Nc1ccc2c(CCl)cc(O)nc2n1
> 300 °C | O=C(Nc1cccc(C(F)(F)F)c1)Nc1c(C(=O)O)[nH]c(=O)[nH]c1=O
129 to 133 °C | COC(=O)Nc1ccc(-c2cccc(C3=NC(C)(C)Cc4cc(OC)c5c(c43)CC(C)(C)O5)c2)cc1
214 °C | N#Cc1cc(NC(=O)c2cc3ccccc3o2)ccc1N1CCC(CCO)CC1
133 to 136 °C | O=C(O)c1ccc(OCC2CCN(CCOc3ccc4c(c3)OCO4)CC2)cc1
73 to 75 °C | Cc1ccc(NCc2ccc(N(C)C)cc2)cc1C
144 to 145 °C | COc1cc2c(c(OC(C)=O)c1)C1CCC3(C)C(=O)CCC3C1CC2 (configuration not stated)
127 to 130 °C | CCC(=O)N(CC)c1cccc(-c2ccc3nncn3n2)c1
173 to 175 °C | OCc1c(CO)c(-c2ccncc2)n2c1CCC2
109 to 111 °C | Fc1ccc(Nc2nc(Cl)nc(NN=Cc3ccc(OC(F)(F)F)cc3)n2)cc1C(F)(F)F
168 to 169 °C | CCOCc1nc2nccnc2c(=O)[nH]1
161 to 163 °C | Cn1cc(Br)cc(Nc2ccn(C3CC3)n2)c1=O

melting point | Compound
214 to 216 °C | O=S(=O)(Nc1cc(Cl)ccc1Cl)c1cc(S(=O)(=O)Nc2cc(Cl)ccc2Cl)c2cc(O)ccc2c1
145 °C | CC(CCNC(=O)CC#N)NC(=O)CC#N (configuration not stated)
137 to 139 °C | Cc1cccc(Nc2ncnc3ccc(CSc4nccn4C)cc23)c1
168 °C | CCCCc1nc(SC)c(C(=O)OCC)n1Cc1ccc(-c2nc3ccccn3c2C#N)cc1
37 to 38 °C | CC(=O)CCCCc1ccc(-c2ccccc2F)cc1
78 to 80 °C | CCC(CC)N(Cc1ccc(C(=O)OC)cc1)S(=O)(=O)c1ccc(F)cc1
156 to 157 °C | COC(=O)C1=CCCn2c(=O)c3ccccc3c(=O)n21
154 to 156 °C | Cc1ccnc2c1C(O)c1ccccc1-2 (configuration not stated)
148 to 149 °C | CCOC(=O)c1cnn2c(-c3ccc(OC)c(OC)c3)ccnc12
108 to 110 °C | COc1ccc(Nc2nc(C=O)cs2)cc1
128 to 130 °C | COc1cc(CO)c2oc(-c3ccc(OC)c(F)c3)cc2c1
90 °C | Cn1c(=O)n(Cc2cccnc2)c2ccccc21
170 to 172 °C | CC(C)(C)c1cc(Oc2c(Cl)cc(C(F)(F)F)cc2Cl)n[nH]1
88 to 90 °C | Cc1nn(C)c(NCC(C)(C)C)c1NCc1ccncc1
245 °C | O=C(CN1CCC(O)CC1)Nc1cccc2c1C(=O)c1c-2n[nH]c1-c1ccc(N2CCOCC2)cc1
179 to 181 °C | CCOc1cscc1C(=O)Nc1cc(Cl)ccc1SSc1ccc(Cl)cc1NC(=O)c1cscc1OCC
78 to 80 °C | COC(=O)[C@@H]1CN(C#N)C[C@H]1c1ccc(OC)c(OC2CCCC2)c1 (relative stereo)
174 to 176 °C | CC(=O)Nc1ccc(S(=O)CC(=O)C23CC4CC(CC(C4)C2)C3)cc1 (configuration not stated)
95 °C | O=C1CCC(c2cccc(F)c2)(c2cccc(F)c2)CC1
165 to 169 °C | O=C(CN1CCC(Cc2ccccc2)CC1)Nc1ccc2cn[nH]c2c1
115 to 117 °C | O=C(CCl)N(c1ccccc1)c1cccc(F)c1
104 to 107 °C | CC1(C)C=Cc2c(ccc3ncccc23)O1
153 to 155 °C | ClCCOc1ccc(C2=C(c3ccccc3)CCCc3cc(OC4CCCCO4)ccc32)cc1 (configuration not stated)
114 to 117 °C | CC(C)N1CCN=C1c1ccccc1C(=O)c1ccc(Cl)cc1
170 °C | O=C1C2=NCCCN2c2cccc(Cl)c21

melting point | Compound
75 to 80 °C | CC(=O)OCC1OC(n2cnc3c(NCC(c4ccccc4)c4ccccc4)ncnc32)C(OC(C)=O)C1OC(C)=O (configuration not stated)
135 to 140 °C | Cc1ccc(-c2ccc(=S)[nH]n2)c(OCC(O)CNC(C)(C)C)c1 (configuration not stated)
124 to 127 °C | CCc1cc2c(cc1C(C)=O)CC(NC(=O)C(F)(F)F)C2 (configuration not stated)
230 °C | N=C(N)NCCCC(NC(=O)CCS)C(=O)O (configuration not stated)
146 to 147 °C | O=C(O)c1ccc(NCCCOc2cccc3ccccc23)cc1
219 to 222 °C | COc1ccc(C(=O)Nc2ccccc2)cc1NC(=S)NC(=O)c1ccccc1
126 to 128 °C | CC(=O)NC1Cc2ccccc2C1
35.5 to 37 °C | O=C1C[C@@H]2O[C@@H](CSc3ccccc3)CN12 (racemic)
97.5 to 100 °C | CC(C)n1cccc1C(N)=S
57 to 58.5 °C | C=C(C)C(=O)OCCOCCOC(=O)c1ccc(O)c(Cl)c1
159 °C | c1coc(Cn2c(NC3CCNCC3)nc3cccnc32)c1
126 to 127 °C | COc1ccc(CCC(=O)c2ccc(O)cc2)c(OC)c1
196 to 198 °C | C=CCNc1cc(C)nc2c(C)n[nH]c12
32 to 38 °C | O=C(O)Cc1c(Oc2ccccc2)cccc1Oc1ccccc1
246 to 247 °C | O=C1c2cc(-c3ccccc3)ccc2-c2c1c1ccc([N+](=O)[O-])cc1c(=O)n2CCCNS(=O)(=O)c1ccccc1
171 to 173 °C | O=C(O)c1cc2c(OC[C@@H](O)CN3CCC(c4ccc5ccccc5c4)CC3)cccc2[nH]1
130 to 134 °C | CCCCC[C@H]1CC[C@H](C(=O)N[C@@H](C(=O)OCc2ccccc2)[C@@H](C)O)CC1
115 to 117 °C | CCOC(=O)c1cc(C(O)(C(F)(F)F)C(F)(F)F)ccc1N
260 to 262 °C | CN1c2ccc([N+](=O)[O-])cc2C(C)(C)C12C=Nc1cc(-c3ccc(N4CCCC4)cc3)c3ccccc3c1O2 (configuration not stated)
99 °C | Cc1c(CC(=O)NCCO)cc(-c2ccc(S(C)(=O)=O)cc2)n1-c1ccc(F)cc1
179 to 181 °C | CN1CCN(CCCCCC(=O)N2c3ccccc3C(=O)Nc3cccnc32)CC1
115 °C | CN(Cc1cccc(-c2ccc(CC3SC(=O)NC3=O)cc2)c1)C(=O)c1cccnc1 (configuration not stated)
145 to 146 °C | CNC(=S)NS(=O)(=O)c1cc(CCNC(=O)c2cc(Cl)ccc2OC)ccc1-c1ccco1
> 255 °C | O=C(NCc1ccccc1)c1cc2c(=O)n(Cc3ccccc3)c(=O)[nH]c2s1
195 to 197 °C | O=C(O)CCCOc1ccc(C2=NNC(=O)CC2)cc1Cl

melting point | Compound
213 to 214 °C | CC(=O)Nc1c(C(=O)c2cccnc2)[nH]c2cc(Cl)ccc12
86 to 88 °C | CCCc1c(COc2ccc(Cc3nnn(Cc4ccc(-c5nnn[nH]5)cc4)n3)cc2)ccc(C(C)=O)c1O
176 to 177 °C | CCc1nc2c(N)nc3ccccc3c2n1CCCCS(=O)(=O)NCc1ccc(OC)cc1
247 to 249 °C | Nc1nc2ccccc2c2sc(CO)nc12
195 to 196 °C | CC(C)(NS(=O)(=O)c1ccc2oc3cc(Cl)ccc3c2c1)C(=O)NO
127 to 129 °C | Cc1c(OCc2ccc(F)cc2F)ccn(Cc2cccc(F)c2)c1=O
157 °C | COc1ccc2ccc(N)cc2c1
212 to 214 °C | OCc1c[nH]c(-c2ccc(O)cc2)n1
112 to 114 °C | CO/N=C(\C(=O)O)c1ccccc1COc1cc(C)ccc1C
193 to 198 °C | CC(C)C(=O)OCC(COC(=O)C(C)C)OCn1cnc2c(=O)[nH]c(N)nc21
61 to 64 °C | CC(C)OC(=O)NCc1cccc(-c2ccccc2)c1
89 °C | CCCOC(=O)CCNCC(O)COc1ccccc1C#N (configuration not stated)
67 to 83 °C | CCN(CC)c1ccc(C2(N(c3ccc(N(C)C)cc3)c3ccc(N(C)C)cc3)OC(=O)c3ccccc32)c(C)c1 (configuration not stated)
204 to 206 °C | CC1CC(=O)N(C)N=C1c1ccc2c(c1)OCC(=O)N2 (configuration not stated)
108 to 109 °C | COC(=O)C1=Cc2ccc(O)cc21
290 °C | O=C(O)c1cn(C2CC2)c2cc(N3CC4CC4C3)c(F)cc2c1=O (configuration not stated)
255 to 257 °C | O=C1Nc2cc(Br)ccc2N2CCc3cccc1c32
39 to 40 °C | O=C1CCCCCCCCCCCCCCCCCCCCCCC1O (configuration not stated)
174 °C | Cc1cccc(N2CCN(c3ccc(S)nn3)CC2)c1
31 to 32 °C | Nc1ccccc1-c1ncco1
80 to 81 °C | Nc1nc(OCC2CC2)c2ncn(C3CC(F)C(CO)O3)c2n1 (configuration not stated)
192 to 193 °C | O=C(O)CCC(=O)C(=O)Nc1ccccc1
178 °C | O=C(Nc1nc2c(ncn2CC(O)CF)c(=O)[nH]1)c1ccccc1 (racemic)
135 to 138 °C | CN(CCc1[nH]c2ccccc2c1-c1ccccc1)C(=O)CCl

Compound | melting point
CC(C)NC(=O)c1cnc(N2CCC(N3C(=O)COc4ccccc43)CC2)c(Cl)c1 | 85 to 88 °C
S=P(SC1CCCCC1)(C1CCCCC1)C1CCCCC1 | 82 to 85 °C
O=C1CN(c2ccc(Oc3ccccc3)cc2)C(=S)N1c1ccc([N+](=O)[O-])cc1 | 204 °C
